This is an account of results in patent US20090325957A1, “MORPHOLINO PYRIMIDINE DERIVATIVES USEFUL IN THE TREATMENT OF PROLIFERATIVE DISORDERS” (ASTRAZENECA AB, priority 2006, published 2009).

The assay concerns the target recombinant mTOR (Homo sapiens, UniProt P42345). As to the kind of experiment: In vitro mTOR kinase assay (AlphaScreen), Test (a). Type of assay: biochemical. How it is done: (a) In Vitro mTOR Kinase Assay
The assay used AlphaScreen technology (Gray et al., Analytical Biochemistry, 2003, 313: 234-245) to determine the ability of test compounds to inhibit phosphorylation by recombinant mTOR.
The HEK293 FLAG-tagged mTOR (1362-2549) stable cell line was routinely maintained at 37° C. with 5% CO2 up to a confluency of 70-90% in Dulbecco's modified Eagle's growth medium (DMEM; Invitrogen Limited, Paisley, UK Catalogue No. 41966-029) containing 10% heat-inactivated foetal calf serum (FCS; Sigma, Poole, Dorset, UK, Catalogue No. F0392), 1% L-glutamine (Gibco, Catalogue No. 25030-024) and 2 mg/ml Geneticin (G418 sulfate; Invitrogen Limited, UK Catalogue No. 10131-027). Following expression in the mammalian HEK293 cell line, expressed protein was purified using the FLAG epitope tag using standard purification techniques.
Test compounds were prepared as 10 mM stock solutions in DMSO and diluted into water as required to give a range of final assay concentrations. Aliquots (2 μl) of each compound dilution were placed into a well of a Greiner 384-well low volume (LV) white polystyrene plate (Greiner Bio-one).
Control wells that produced a maximum signal corresponding to maximum enzyme activity were created by using 5% DMSO instead of test compound. […] These assay solutions were incubated for 2 hours at room temperature.
Each reaction was stopped by the addition of 10 μl of a mixture of EDTA (50 mM), bovine serum albumin (BSA; 0.5 mg/mL) and Tris-HCl pH7.4 buffer (50 mM) containing
p70 S6 Kinase (T389) 1A5 Monoclonal Antibody (Cell Signalling Technology, Catalogue No. 9206B) and AlphaScreen Streptavidin donor and Protein A acceptor beads (200 ng; Perkin Elmer, Catalogue No. 6760002B and 6760137R respectively) were added and the assay plates were left for about 20 hours at room temperature in the dark. The resultant signals arising from laser light excitation at 680 nm were read using a Packard Envision instrument.
Phosphorylated biotinylated peptide is formed in situ as a result of mTOR mediated phosphorylation. The phosphorylated biotinylated peptide that is associated with AlphaScreen Streptavidin donor beads forms a complex with the p70 S6 Kinase (T389) 1A5 Monoclonal Antibody that is associated with Alphascreen Protein A acceptor beads. Upon laser light excitation at 680 nm, the donor bead: acceptor bead complex produces a signal that can be measured. Accordingly, the presence of mTOR kinase activity results in an assay signal. In the presence of an mTOR kinase inhibitor, signal strength is reduced.
mTOR enzyme inhibition for a given test compound was expressed as an IC50 value.
A general note: Bead proximity is the source of the signal in Alpha formats.

Where [1] appears, read: average value, read-out: Test (a) average IC50.

“And” between values parts separate entries of the source, which are not always exact repeats. Equal entries are not always repeated. Where two headings read alike, the source gives them in different places.

Chain of recombinant mTOR (P42345 1362-2549): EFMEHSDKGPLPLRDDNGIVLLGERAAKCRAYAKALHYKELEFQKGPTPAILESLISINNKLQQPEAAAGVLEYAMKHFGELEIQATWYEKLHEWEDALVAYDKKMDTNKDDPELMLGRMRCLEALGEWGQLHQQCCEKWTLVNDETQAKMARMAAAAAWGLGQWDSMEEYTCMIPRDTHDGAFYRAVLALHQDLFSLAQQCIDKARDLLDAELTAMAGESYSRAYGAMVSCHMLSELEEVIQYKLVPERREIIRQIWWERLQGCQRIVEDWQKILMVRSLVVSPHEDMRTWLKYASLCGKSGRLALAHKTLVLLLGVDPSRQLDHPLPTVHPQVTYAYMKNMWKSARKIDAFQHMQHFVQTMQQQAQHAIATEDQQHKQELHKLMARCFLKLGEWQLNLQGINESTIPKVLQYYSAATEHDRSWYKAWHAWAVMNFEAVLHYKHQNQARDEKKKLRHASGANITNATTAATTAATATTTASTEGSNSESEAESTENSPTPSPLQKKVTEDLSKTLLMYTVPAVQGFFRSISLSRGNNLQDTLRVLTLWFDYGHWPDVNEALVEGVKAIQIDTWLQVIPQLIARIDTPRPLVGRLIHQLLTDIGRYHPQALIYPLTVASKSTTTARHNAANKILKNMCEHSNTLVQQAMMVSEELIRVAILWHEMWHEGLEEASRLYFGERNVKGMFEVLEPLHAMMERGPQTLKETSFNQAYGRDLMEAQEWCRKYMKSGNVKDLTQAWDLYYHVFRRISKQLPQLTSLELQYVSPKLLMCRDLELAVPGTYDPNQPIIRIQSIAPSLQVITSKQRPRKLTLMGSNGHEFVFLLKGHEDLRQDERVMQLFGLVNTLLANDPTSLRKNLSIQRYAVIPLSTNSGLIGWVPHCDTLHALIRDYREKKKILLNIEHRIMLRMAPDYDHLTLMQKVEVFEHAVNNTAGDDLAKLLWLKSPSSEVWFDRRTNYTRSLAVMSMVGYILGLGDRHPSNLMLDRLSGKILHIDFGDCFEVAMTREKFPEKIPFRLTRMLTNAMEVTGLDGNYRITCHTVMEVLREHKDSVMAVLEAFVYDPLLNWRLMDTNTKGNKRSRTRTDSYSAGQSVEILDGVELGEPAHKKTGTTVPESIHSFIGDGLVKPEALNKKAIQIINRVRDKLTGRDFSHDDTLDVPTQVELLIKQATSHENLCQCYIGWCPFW

For the molecule `CS(=O)(=O)Cc1cc(N2CCOCC2)nc(-c2ccc(NS(C)(=O)=O)c(CO)c2)n1` [Example 1, N-[2-(Hydroxymethyl)-4-[4-(methylsulfonylmethyl)-6-morpholin-4-yl-pyrimidin-2-yl]phenyl]methanesulfonamide], the IC50 under setting [1] turned out to be 5 µM.

On to `CS(=O)(=O)Cc1cc(N2CCOCC2)nc(-c2ccc(CNS(C)(=O)=O)cc2)n1` [Example 2, N-[[4-[4-(Methylsulfonylmethyl)-6-morpholin-4-yl-pyrimidin-2-yl]phenyl]methyl]methanesulfonamide], for which, under setting [1], the IC50 was determined as 6.8 µM.

For `CS(=O)(=O)Cc1cc(N2CCOCC2)nc(-c2ccc(NS(=O)(=O)C3CC3)cc2)n1` [Example 3, N-[4-[4-(Methylsulfonylmethyl)-6-morpholin-4-yl-pyrimidin-2-yl]phenyl]cyclopropanesulfonamide], under setting [1], the IC50 was 0.88 µM.

For `CCS(=O)(=O)Nc1ccc(-c2nc(CS(C)(=O)=O)cc(N3CCOCC3)n2)cc1` [Example 3a, N-[4-[4-(methylsulfonylmethyl)-6-morpholin-4-yl-pyrimidin-2-yl]phenyl]ethanesulfonamide], under setting [1], the 50% inhibitory concentration (IC50) worked out at 1.4 µM.

As for `CCCS(=O)(=O)Nc1ccc(-c2nc(CS(C)(=O)=O)cc(N3CCOCC3)n2)cc1` [Example 3b, N-[4-[4-(methylsulfonylmethyl)-6-morpholin-4-yl-pyrimidin-2-yl]phenyl]propane-1-sulfonamide], the IC50 under setting [1] amounted to 4 µM.

For the molecule `CCCCS(=O)(=O)Nc1ccc(-c2nc(CS(C)(=O)=O)cc(N3CCOCC3)n2)cc1` [Example 3c, N-[4-[4-(methylsulfonylmethyl)-6-morpholin-4-yl-pyrimidin-2-yl]phenyl]butane-1-sulfonamide], the IC50 under setting [1] worked out at 6 µM.

`CS(=O)(=O)Cc1cc(N2CCOCC2)nc(-c2ccc(NS(=O)(=O)Cc3ccc(F)cc3)cc2)n1` [Example 3d, 1-(4-fluorophenyl)-N-[4-[4-(methylsulfonylmethyl)-6-morpholin-4-yl-pyrimidin-2-yl]phenyl]methanesulfonamide]: under setting [1], the IC50 is 7.1 µM.

Take `CS(=O)(=O)Cc1cc(N2CCOCC2)nc(-c2ccc(NS(C)(=O)=O)cc2)n1` [Example 4, N-[4-[4-(Methylsulfonylmethyl)-6-morpholin-4-yl-pyrimidin-2-yl]phenyl]methanesulfonamide]: the IC50 by setting is: under setting [1], 2.6 µM; (single values, measured on three occasions, read-out: IC50 versus mTOR kinase) 3.32 µM and 2.49 µM and 2.25 µM.

Take `C[C@H]1COCCN1c1cc(CS(C)(=O)=O)nc(-c2ccc(CNS(C)(=O)=O)cc2)n1` [Example 5, N-[[4-[4-[(3S)-3-Methylmorpholin-4-yl]-6-(methylsulfonylmethyl)pyrimidin-2-yl]phenyl]methyl]methanesulfonamide]: the concentration for half-maximal inhibition (IC50) under setting [1] turned out to be 4.5 µM.

For the molecule `C[C@H]1COCCN1c1cc(CS(C)(=O)=O)nc(-c2ccc(NS(C)(=O)=O)cc2)n1` [Example 6, N-[4-[4-[(3S)-3-Methylmorpholin-4-yl]-6-(methylsulfonylmethyl)pyrimidin-2-yl]phenyl]methanesulfonamide], the IC50 under setting [1] came out at 1 µM.

In general, IC50 refers to the midpoint of a concentration-inhibition curve.
